What was measured:
serum albumin = serum albumin (Homo sapiens, UniProt P02768); details: cited from earlier work
[1] = Drug release from hydrogels, with diffusion model fitting; format: physicochemical; details: for Average drug release (last 30 min), normalized amount: released from purified mono-PEGylated albumin hydrogels (10 kDa PEG), insulins fluorescein-labelled, FIG. 5
Procedure: Both LEVEMIR® and […]® were fluorescently labelled by 5 mg/ml NHS-fluorescein (Pierce, Illinois, U.S.A.) in DMSO, with a molar ratio of 15:1 NHS-fluorescein to insulin. The solution was allowed to react for 5 hr in 4° C. and dialysed (Cellu-Sep H1, 1-kDaMW cutoff, Texas, U.S.A.) against PBS with 0.1% (w/v) of sodium azide with DMSO in decreasing concentrations of DMSO (10-0%) for 1 week.
The drug was saturated in disk-shaped hydrogel constructs prepared from PEG-DA or PEGylated proteins, that were formed into hydrogels by photopolymerization using 0.1% (w/v) Irgacure™ 2959 (Ciba Specialty Chemicals, Basel, Switzerland) and UV light (λ=365 nm, 4-5 mW/cm^2) exposure for 5 min as described elsewhere (Gonen-Wadmany et al., 2007). The hydrogel constructs were produced from six different hydrogel precursor solutions, including: (i) purified mono-PEGylated albumin in PEG-DA; (ii) non-purified mono-PEGylated albumin (containing wild-type and multi-PEGylated albumin) in PEG-DA; (iii) multi-PEGylated albumin in PEG-DA; (iv) wild-type albumin in PEG-DA; (v) PEG-DA; (vi) PEGylated fibrinogen in PEG-DA. In all cases, the protein (albumin or fibrinogen) concentration was 8.5 mg/ml, and the PEG-DA was added to reach a total PEG concentration of 7%.
Drug release from the hydrogel constructs into the supernatant was measured fluorescently (excitation at […]) in PBS with 0.1% (w/v) of sodium azide under constant agitation at 37° C. using a Varioscan plate-reader (Thermo Electron Corporation, Finland). (In the case of degradation experiments, 0.01 mg/ml of Trypsin (MP Biomedicals) was added to the PBS solution.) The raw data was normalized by the fluorescence intensity measured after 24 hours. The constructs were liquefied by homogenization or sonication (for multi-PEGylated albumin and fibrinogen), or by chemical means using 0.1 M NaOH, and the drug content was quantified to confirm complete drug release.
The drug release profiles were compared with a known model of diffusion-based release kinetics. […]

[2] = Warfarin fluorescence and albumin binding; details: for Fluorescence Intensity Ratio Comparing to Warfarin Alone: 5 mg/ml protein in PBS, 10:1 molar ratio albumin to Warfarin, ~5 hours incubation, excitation 320 nm, emission 385 nm, n = 6
Procedure: The mixture was incubated for ˜5 hours before reading fluorescence emission (λ=385 nm) at a 320 nm excitation wavelength using a Varioscan spectral scanning multimode reader (Thermo Electron Corporation, Vantaa, Finland).

[3] = Equilibrium dialysis of Warfarin with wild-type or PEGylated albumin; format: binding; details: result in words; for affinity of Warfarin to the protein by equilibrium dialysis: equilibrium at about 24 hr, compared to wild-type albumin
Procedure: The two chambers of the device were separated by a dialysis membrane (12-14 kDa MW cutoff) and drug diffusion was measured by fluorescence spectroscopy. One dialysis chamber of the device was filled with 25 ml PBS solution containing 0.1% (w/v) of sodium azide (Fluka).

Compound | Average drug release (last 30 min), normalized amount [1] | Fluorescence Intensity Ratio Comparing to Warfarin Alone [2] | affinity of Warfarin to the protein by equilibrium dialysis [3] | also measured
ACTRAPID®: regular human insulin formulation, 100 IU/ml, Novo Nordisk; no binding affinity to serum albumin | 0.57±0.14 | – | – | binding affinity to serum albumin (serum albumin): no binding affinity
Albumin: bovine serum albumin (MP Biomedicals), non-PEGylated control in solution | – | 2.8 ± 0.2 | – | increase in Warfarin fluorescence when bound to albumin ([2]; bovine albumin, versus unbound Warfarin): 2.8 fold; percent of drug (Warfarin) transported through the dialysis membrane at equilibrium ([3]; about 24 hr, albumin to Warfarin 5:1, room temperature): lowest
COc1ccc2cc([C@H](C)C(=O)O)ccc2c1 [Naproxen] | 0.66±0.07 | – | – | release kinetics of drugs compared ([1]; from purified mono-PEGylated albumin hydrogels (10 kDa PEG), p-value<0.05): released significantly faster
PEG-Alb 10 kDa: bovine serum albumin multi-PEGylated with linear 10 kDa PEG-DA, in solution | – | 1.5 ± 0.5 | – | –
PEG-Alb 1.5 kDa: bovine serum albumin multi-PEGylated with linear 1.5 kDa PEG-DA, in solution | – | 1.6 ± 0.3 | significantly less affinity | –
PEG-Alb 4 kDa: bovine serum albumin multi-PEGylated with linear 4 kDa PEG-DA, in solution | – | 1.5 ± 0.4 | significantly less affinity | –
